Data taken from publication PMC6954049 (Antiviral Research, 2019).
Structures can show the parent of a compound that is named as a salt.

Columns and labels:
[1] = system: LCMV/vRNP cells (HEK293T)
in vitro = details: human, CC50 (μM) AlamarBlue assay
LCMV MG = LCMV MG (Lymphocytic choriomeningitis virus, UniProt P09992+P14240); type: cell-based
rLCMV/GFP = experiment: microbe, parasite or virus in culture; type: cell-based

LCMV MG, sequence (P09992 whole entry, looked up): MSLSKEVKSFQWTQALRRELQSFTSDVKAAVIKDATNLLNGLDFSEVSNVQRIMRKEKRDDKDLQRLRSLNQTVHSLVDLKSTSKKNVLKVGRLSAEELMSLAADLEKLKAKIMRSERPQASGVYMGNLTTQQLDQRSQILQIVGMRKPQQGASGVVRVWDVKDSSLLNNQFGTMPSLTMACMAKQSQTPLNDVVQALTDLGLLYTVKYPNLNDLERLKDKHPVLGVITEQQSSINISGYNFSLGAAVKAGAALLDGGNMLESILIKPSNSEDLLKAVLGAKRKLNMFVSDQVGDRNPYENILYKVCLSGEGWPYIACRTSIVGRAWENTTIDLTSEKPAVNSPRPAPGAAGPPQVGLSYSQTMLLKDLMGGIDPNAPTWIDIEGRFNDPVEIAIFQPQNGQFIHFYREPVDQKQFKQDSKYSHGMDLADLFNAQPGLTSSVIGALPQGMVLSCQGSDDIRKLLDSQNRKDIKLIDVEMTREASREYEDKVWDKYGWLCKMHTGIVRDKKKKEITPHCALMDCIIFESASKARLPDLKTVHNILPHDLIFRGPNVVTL
LCMV MG, sequence (P14240 whole entry, looked up): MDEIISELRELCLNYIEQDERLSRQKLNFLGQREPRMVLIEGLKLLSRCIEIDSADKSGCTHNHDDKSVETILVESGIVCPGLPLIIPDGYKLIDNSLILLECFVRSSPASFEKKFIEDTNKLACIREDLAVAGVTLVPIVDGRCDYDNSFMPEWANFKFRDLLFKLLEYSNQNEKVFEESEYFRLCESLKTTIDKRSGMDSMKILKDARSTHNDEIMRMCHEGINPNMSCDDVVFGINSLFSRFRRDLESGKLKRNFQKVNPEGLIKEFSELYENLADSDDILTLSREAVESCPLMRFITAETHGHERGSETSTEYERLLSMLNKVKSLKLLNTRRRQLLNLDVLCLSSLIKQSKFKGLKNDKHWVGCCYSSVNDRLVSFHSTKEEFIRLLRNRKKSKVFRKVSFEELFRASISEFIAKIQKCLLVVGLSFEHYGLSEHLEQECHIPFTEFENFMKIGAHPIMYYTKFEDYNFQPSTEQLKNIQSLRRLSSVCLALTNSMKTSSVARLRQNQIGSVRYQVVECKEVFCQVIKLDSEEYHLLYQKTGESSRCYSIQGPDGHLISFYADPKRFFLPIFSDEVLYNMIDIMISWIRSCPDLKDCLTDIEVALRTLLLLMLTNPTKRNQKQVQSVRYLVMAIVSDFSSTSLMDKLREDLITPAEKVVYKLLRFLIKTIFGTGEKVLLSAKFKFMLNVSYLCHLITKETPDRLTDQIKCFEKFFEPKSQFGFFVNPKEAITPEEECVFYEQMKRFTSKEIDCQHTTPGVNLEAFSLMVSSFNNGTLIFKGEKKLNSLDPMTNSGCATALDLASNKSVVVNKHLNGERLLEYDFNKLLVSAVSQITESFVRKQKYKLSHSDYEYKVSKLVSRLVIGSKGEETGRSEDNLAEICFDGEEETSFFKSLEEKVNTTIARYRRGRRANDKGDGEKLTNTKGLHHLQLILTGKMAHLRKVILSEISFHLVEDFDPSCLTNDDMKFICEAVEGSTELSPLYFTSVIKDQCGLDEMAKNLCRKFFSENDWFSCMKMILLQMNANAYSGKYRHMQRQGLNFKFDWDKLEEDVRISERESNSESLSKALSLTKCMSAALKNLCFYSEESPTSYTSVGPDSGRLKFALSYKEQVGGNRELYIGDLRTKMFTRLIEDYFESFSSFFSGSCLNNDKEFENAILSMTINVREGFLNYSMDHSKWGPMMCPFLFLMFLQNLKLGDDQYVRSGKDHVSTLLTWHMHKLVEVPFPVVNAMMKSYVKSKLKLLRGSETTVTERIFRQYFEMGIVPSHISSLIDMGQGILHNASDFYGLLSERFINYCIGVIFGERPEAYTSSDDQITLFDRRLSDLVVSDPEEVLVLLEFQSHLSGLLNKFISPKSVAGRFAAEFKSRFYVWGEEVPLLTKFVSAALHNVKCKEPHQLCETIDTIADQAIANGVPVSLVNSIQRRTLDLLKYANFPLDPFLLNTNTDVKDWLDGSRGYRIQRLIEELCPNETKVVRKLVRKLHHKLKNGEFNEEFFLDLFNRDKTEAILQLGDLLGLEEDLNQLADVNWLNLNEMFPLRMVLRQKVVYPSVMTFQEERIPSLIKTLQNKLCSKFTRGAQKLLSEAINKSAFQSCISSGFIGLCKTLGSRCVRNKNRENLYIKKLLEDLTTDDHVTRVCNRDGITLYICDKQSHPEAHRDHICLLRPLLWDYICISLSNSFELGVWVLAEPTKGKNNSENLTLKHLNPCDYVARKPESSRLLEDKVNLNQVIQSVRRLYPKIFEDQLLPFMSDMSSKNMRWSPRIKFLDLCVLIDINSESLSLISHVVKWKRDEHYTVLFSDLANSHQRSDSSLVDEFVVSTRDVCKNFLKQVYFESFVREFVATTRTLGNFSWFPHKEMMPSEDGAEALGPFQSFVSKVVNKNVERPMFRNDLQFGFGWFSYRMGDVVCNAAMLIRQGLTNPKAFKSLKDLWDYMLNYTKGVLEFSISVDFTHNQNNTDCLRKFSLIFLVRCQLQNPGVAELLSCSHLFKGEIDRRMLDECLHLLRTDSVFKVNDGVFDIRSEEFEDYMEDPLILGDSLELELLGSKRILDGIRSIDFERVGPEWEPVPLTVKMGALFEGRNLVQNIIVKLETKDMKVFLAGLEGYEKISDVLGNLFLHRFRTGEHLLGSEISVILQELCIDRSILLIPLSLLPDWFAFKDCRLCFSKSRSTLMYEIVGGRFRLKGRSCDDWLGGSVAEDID

For `CC[C@@]1([C@H]2O[C@H]([C@H]3O[C@@](O)(CO)[C@H](C)C[C@@H]3C)C[C@H]2C)CC[C@H]([C@@]2(C)CC[C@]3(C[C@H](O)[C@@H](C)[C@@H]([C@H](C)[C@H](OC)[C@@H](C)C(=O)O)O3)O2)O1` [Monensin sodium salt], the CC50 [1] was 5.95 µM.
With `COc1ccc(C(O)C(C)Oc2ccc(C3OC(c4ccc(OC(C)C(O)c5ccc(OC)c(OC)c5)c(OC)c4)C(C)C3C)cc2OC)cc1OC` (stereo not shown) [Manassantin A] the CC50 (in vitro) was 24.3 µM and the “effect on LCMV MG activity (GFP expression)” value (“effect on LCMV MG activity” below) (LCMV MG) was “dose-dependent inhibitory effect”.
For `CO/C=C(/C(=O)OC)c1ccccc1Oc1cc(Oc2ccccc2C#N)ncn1` [Azoxystrobin], the CC50 [1] was 62.7 µM.
In the case of PF429242, the “effect on multiplication of live LCMV (rLCMV/GFP)” value (rLCMV/GFP) is reported as “inhibited”.
For `O=C1c2ccccc2-n2c1nc1ccccc1c2=O` [Tryptanthrin], the CC50 (in vitro) was 12.2 µM.
`S=C(NCc1ccc2c(c1)OCO2)N1CCN(c2ncnc3c2oc2ccccc23)CC1` [Amuvatinib] gave a CC50 (in vitro) of 28 µM.
Work on `C=C(C)[C@H]1Cc2c(ccc3c2O[C@@H]2COc4cc(OC)c(OC)cc4[C@@H]2C3=O)O1` [Rotenone] yielded an EC50 (rLCMV/GFP; Mammarenavirus choriomeningitidis, A549, 48 h) of 0.66 µM.
In the case of `CC[C@@H](C(=O)O)[C@@H]1O[C@@H]([C@@H](C)[C@H](O)[C@H](C)C(=O)[C@H](CC)[C@H]2O[C@]3(C=C[C@@H](O)[C@]4(CC[C@@](C)([C@H]5CC[C@](O)(CC)[C@H](C)O5)O4)O3)[C@H](C)C[C@@H]2C)[C@@H](C)C[C@@H]1C` [Narasin], the CC50 (in vitro) is reported as 4.44 µM and the “effect on LCMV MG activity” value (LCMV MG) is reported as “dose-dependent inhibitory effect”.
With `O=c1[nH]c2ccccc2n1C1CCN(CCCC(c2ccc(F)cc2)c2ccc(F)cc2)CC1` [Pimozide] the “effect on LCMV MG activity” value (LCMV MG) was “dose-dependent inhibitory effect”.
Molecule `CC(C)[C@@H]1NC(=O)[C@H](C)OC(=O)[C@@H](C(C)C)NC(=O)[C@@H](C(C)C)OC(=O)[C@H](C(C)C)NC(=O)[C@H](C)OC(=O)[C@@H](C(C)C)NC(=O)[C@@H](C(C)C)OC(=O)[C@H](C(C)C)NC(=O)[C@H](C)OC(=O)[C@@H](C(C)C)NC(=O)[C@@H](C(C)C)OC1=O` [Valinomycin] has a CC50 (in vitro) of 1.93 µM.
With `CCCCCC[C@H]1C(=O)O[C@H](C)[C@H](NC(=O)c2cccc(NC=O)c2O)C(=O)O[C@@H](C)[C@@H]1OC(=O)CC(C)C` [Antimycin A] the “effect on LCMV MG activity” value (LCMV MG) was “dose-dependent inhibitory effect”.
